Source: patent publication US8642801B2 (BHI Limited Partnership, priority 2003, dated 2014)

Target: T1, Aβ40 and Aβ42 peptides in plasma and brain of TgCRND8 mice (Homo sapiens, UniProt P05067)
T1 construct: ELISA using Human Aβ40 and Aβ42 Fluorometric ELISA kits from Biosource; from tissue; host or cells: plasma and brain homogenate of TgCRND8 transgenic mice (hAPP transgene)
Experiment: Long term treatment in adult transgenic CRND8 mice overexpressing βAPP: Aβ levels in plasma and brain by ELISA
Assay type: in vivo, Mouse
Conditions: BX subcutaneous, BW and BZ oral, vs vehicle or methylcellulose control
Text: Transgenic mice, TgCRND8, as those used in the short term treatment, overexpress a human APP gene with the Swedish and Indiana mutations leading to the production of high levels of the amyloid peptides and to the development of an early-onset, aggressive development of brain amyloidosis. The high levels of Aβ peptides and the relative overabundance of Aβ42 compared to Aβ40 are believed to be associated with the severe and early degenerative pathology observed. The pattern of amyloid deposition, presence of dystrophic neuritis, and cognitive deficit has been well documented in this transgenic mouse line. The levels of Aβ peptides in the brain of these mice increase dramatically as the animals age. While the total amyloid peptide levels increase from ˜1.6×10^5 pg/g of brain to ˜3.8×10^6 between 9 and 17 weeks of age.
The long-term therapeutic effects of compounds of the present invention on cerebral amyloid deposition and β-amyloid (Aβ) levels in the plasma and in the brains of transgenic mice, TgCRND8, expressing the human amyloid precursor protein (hAPP) was studied. These compounds were administered over an 8 or 16 week period at the end of which the levels of Aβ peptides in the plasma and brain of TgCRND8 animals were determined. The goal of this study was to evaluate the efficacy of the compounds at modulating the progression of the amyloidogenic process in the brain and in the plasma of a transgenic mouse model of Alzheimer's disease (AD)
The mice used in the study consisted of animals bearing one copy of the hAPP gene (+/−) from the 2nd and 3rd generation progenies (N2 and N3) derived from backcrosses from TgCRND8.FVB(N2)AJ(N3) with B6AF1/J hybrid animals. N1=TgCRND8.FVB(N2)AJ(N3)×B6AF1/J N2=TgCRND8.FVB(N2)AJ(N3).B6AF1/J(N1)×B6AF1/J N3=TgCRND8.FVB(N2)AJ(N3).B6AF1/J(N2)×B6AF1/a
The following abbreviations are used to designate these animals in the present study: TgCRND8.B6AF1/J(N2); TgCRND8.B6AF1/J(N3). Male and female transgenic mice were given daily subcutaneous (compound BX) or oral (compounds BW and BZ) administrations of the appropriate compounds for 8 or 16 weeks.
Baseline animals consisted of 9±1 week old naive TgCRND8.B6AF1/J animals from the 2nd and 3rd generations. These mice were used to determine the extent of cerebral amyloid deposits and Aβ levels in the plasma and brain of naive transgenic animals at the initiation of treatment.
Starting at 9 weeks of age (±1 week) animals received daily administration of their respective treatment for a period of 8 or 16 weeks, at a dose of 30 or 100 mg/kg at 10 ml/kg. The route of administration was subcutaneous for water-soluble compounds (Compound BX) and oral for compounds solubilized in methylcellulose 1% (MC 1%) (Compounds BW and BZ). At the end of the treatment periods, plasma and perfused brains were collected for quantification of Aβ levels.
Animal health was monitored, samples were collected and Aβ levels were measured as described above in the short term treatment study. Compounds were scored based on their ability to modulate levels of Aβ peptides in the plasma and the cerebral soluble/insoluble levels in the brain. Levels of Aβ observed in the plasma and brain of treated animals were compared to that of vehicle-treated (water) or methylcellulose-treated control groups and ranked according to the strength of the pharmacological effect. Increases in the levels of Aβ peptides are indicated using “+” symbols, while decreases in the levels of Aβ peptides are indicated using “−” symbols. The strongest effects are recorded as “+++” or “−−−” while the weakest are shown as “+” or “−”.
Specifically, increases in the levels of Aβ (relative to vehicle treated control) of 5 to 14% are scored as “+”; increases of 15 to 29% are scored as “++”; and increases of 30% or higher are scored as “+++”. Decreases in the levels of Aβ of 5 to 14% are scored as “−”; decreases of 15 to 29% are scored as “−−”; and decreases of 30% or more are scored as “−−−”. […]

Row | Compound | Brain Abeta40 insoluble (30 mg/kg daily, 8 wks) | Brain Abeta40 soluble (30 mg/kg daily, 8 wks) | Brain Abeta42 insoluble (30 mg/kg daily, 8 wks) | Brain Abeta42 soluble (30 mg/kg daily, 8 wks) | Plasma Abeta40 (30 mg/kg daily, 8 wks) | Plasma Abeta42 (30 mg/kg daily, 8 wks) | Brain Abeta40 insoluble (30 mg/kg daily, 16 wks) | Brain Abeta40 soluble (30 mg/kg daily, 16 wks) | Brain Abeta42 insoluble (30 mg/kg daily, 16 wks) | Brain Abeta42 soluble (30 mg/kg daily, 16 wks) | Plasma Abeta40 (30 mg/kg daily, 16 wks) | Plasma Abeta42 (30 mg/kg daily, 16 wks) | Brain Abeta40 insoluble (100 mg/kg daily, 8 wks) | Brain Abeta40 soluble (100 mg/kg daily, 8 wks) | Brain Abeta42 insoluble (100 mg/kg daily, 8 wks) | Brain Abeta42 soluble (100 mg/kg daily, 8 wks) | Plasma Abeta40 (100 mg/kg daily, 8 wks) | Plasma Abeta42 (100 mg/kg daily, 8 wks) | Brain Abeta40 insoluble (100 mg/kg daily, 16 wks) | Brain Abeta40 soluble (100 mg/kg daily, 16 wks) | also measured
1 | O=S(=O)(O)CCCNC1C2CC3CC(C2)CC1C3 (stereo not drawn) [BZ, 3-(2-adamantyl)amino-1-propanesulfonic acid] | −− (decreases of 15 to 29% are scored as “−−”) | 0 (changes of 4% or less in either direction are scored as “0”) | −−− (decreases of 30% or more are scored as “−−−”) | 0 (changes of 4% or less in either direction are scored as “0”) | 0 (changes of 4% or less in either direction are scored as “0”) | 0 (changes of 4% or less in either direction are scored as “0”) | + (increases in the levels of Aβ (relative to vehicle treated control) of 5 to 14% are scored as “+”) | 0 (changes of 4% or less in either direction are scored as “0”) | 0 (changes of 4% or less in either direction are scored as “0”) | + (increases in the levels of Aβ (relative to vehicle treated control) of 5 to 14% are scored as “+”) | 0 (changes of 4% or less in either direction are scored as “0”) | + (increases in the levels of Aβ (relative to vehicle treated control) of 5 to 14% are scored as “+”) | 0 (changes of 4% or less in either direction are scored as “0”) | ++ (increases of 15 to 29% are scored as “++”) | − (Decreases in the levels of Aβ of 5 to 14% are scored as “−”) | 0 (changes of 4% or less in either direction are scored as “0”) | ++ (increases of 15 to 29% are scored as “++”) | +++ (increases of 30% or higher are scored as “+++”) | 0 (changes of 4% or less in either direction are scored as “0”) | −− (decreases of 15 to 29% are scored as “−−”) | Brain Abeta42 insoluble (100 mg/kg daily, 16 wks): + (increases in the levels of Aβ (relative to vehicle treated control) of 5 to 14% are scored as “+”); Brain Abeta42 soluble (100 mg/kg daily, 16 wks): − (Decreases in the levels of Aβ of 5 to 14% are scored as “−”); Plasma Abeta40 (100 mg/kg daily, 16 wks): ++ (increases of 15 to 29% are scored as “++”); Plasma Abeta42 (100 mg/kg daily, 16 wks): ++ (increases of 15 to 29% are scored as “++”)
2 | CC(C)(C)NCCCS(=O)(=O)O [BX, 3-(t-butyl)amino-1-propanesulfonic acid] | −−− (decreases of 30% or more are scored as “−−−”) | −−− (decreases of 30% or more are scored as “−−−”) | −− (decreases of 15 to 29% are scored as “−−”) | −−− (decreases of 30% or more are scored as “−−−”) | + (increases in the levels of Aβ (relative to vehicle treated control) of 5 to 14% are scored as “+”) | + (increases in the levels of Aβ (relative to vehicle treated control) of 5 to 14% are scored as “+”) | −−− (decreases of 30% or more are scored as “−−−”) | −− (decreases of 15 to 29% are scored as “−−”) | − (Decreases in the levels of Aβ of 5 to 14% are scored as “−”) | 0 (changes of 4% or less in either direction are scored as “0”) | − (Decreases in the levels of Aβ of 5 to 14% are scored as “−”) | − (Decreases in the levels of Aβ of 5 to 14% are scored as “−”) | ++ (increases of 15 to 29% are scored as “++”) | + (increases in the levels of Aβ (relative to vehicle treated control) of 5 to 14% are scored as “+”) | 0 (changes of 4% or less in either direction are scored as “0”) | + (increases in the levels of Aβ (relative to vehicle treated control) of 5 to 14% are scored as “+”) | ++ (increases of 15 to 29% are scored as “++”) | +++ (increases of 30% or higher are scored as “+++”) | −−− (decreases of 30% or more are scored as “−−−”) | − (Decreases in the levels of Aβ of 5 to 14% are scored as “−”) | Brain Abeta42 insoluble (100 mg/kg daily, 16 wks): −− (decreases of 15 to 29% are scored as “−−”); Brain Abeta42 soluble (100 mg/kg daily, 16 wks): 0 (changes of 4% or less in either direction are scored as “0”); Plasma Abeta40 (100 mg/kg daily, 16 wks): − (Decreases in the levels of Aβ of 5 to 14% are scored as “−”); Plasma Abeta42 (100 mg/kg daily, 16 wks): 0 (changes of 4% or less in either direction are scored as “0”)
3 | O=S(=O)(O)CCCNC12CC3CC(CC(C3)C1)C2 [BW, 3-(1-adamantyl)amino-1-propanesulfonic acid] | −− (decreases of 15 to 29% are scored as “−−”) | − (Decreases in the levels of Aβ of 5 to 14% are scored as “−”) | 0 (changes of 4% or less in either direction are scored as “0”) | −− (decreases of 15 to 29% are scored as “−−”) | −−− (decreases of 30% or more are scored as “−−−”) | −−− (decreases of 30% or more are scored as “−−−”) | ++ (increases of 15 to 29% are scored as “++”) | + (increases in the levels of Aβ (relative to vehicle treated control) of 5 to 14% are scored as “+”) | + (increases in the levels of Aβ (relative to vehicle treated control) of 5 to 14% are scored as “+”) | − (Decreases in the levels of Aβ of 5 to 14% are scored as “−”) | −− (decreases of 15 to 29% are scored as “−−”) | −− (decreases of 15 to 29% are scored as “−−”) | −−− (decreases of 30% or more are scored as “−−−”) | −− (decreases of 15 to 29% are scored as “−−”) | −−− (decreases of 30% or more are scored as “−−−”) | −− (decreases of 15 to 29% are scored as “−−”) | − (Decreases in the levels of Aβ of 5 to 14% are scored as “−”) | − (Decreases in the levels of Aβ of 5 to 14% are scored as “−”) | + (increases in the levels of Aβ (relative to vehicle treated control) of 5 to 14% are scored as “+”) | ++ (increases of 15 to 29% are scored as “++”) | Brain Abeta42 insoluble (100 mg/kg daily, 16 wks): ++ (increases of 15 to 29% are scored as “++”); Brain Abeta42 soluble (100 mg/kg daily, 16 wks): + (increases in the levels of Aβ (relative to vehicle treated control) of 5 to 14% are scored as “+”); Plasma Abeta40 (100 mg/kg daily, 16 wks): − (Decreases in the levels of Aβ of 5 to 14% are scored as “−”); Plasma Abeta42 (100 mg/kg daily, 16 wks): − (Decreases in the levels of Aβ of 5 to 14% are scored as “−”)
